Experimental data: patent publication US8653071B2, “α4β2 neuronal nicotinic acetylcholine receptor ligands” (Suven Life Sciences Limited, priority 2009, dated 2014)
Counter-ions that a name gives are not always drawn. Like-named read-outs stand apart in the source and are kept apart here.

Assays:
[1] = Rodent pharmacokinetic study; type: in vivo; conditions: Wistar, Wister rat/Male
Experimental: Rodent Pharmacokinetic Study
Three to five animals were housed in each cage. Animals were kept fasted over night and maintained on a 12 hours light/dark cycle. Three rats were dosed NCE orally (15 or 5 mg/kg) and intravenously (5 mg/kg) on day 0 and day 2
At each time point blood was collected by jugular vein. Plasma was stored frozen at −20° C. until analysis. The concentrations of the NCE compound in plasma were determined using LC-MS/MS method. Schedule time points: Pre dose 0.25, 0.5, 1, 1.5, 2, 3, 4, 6, 8, 10, 12 and 24 hours after dosing (n=3).
Pharmacokinetic parameters Cmax, Tmax, AUCt, T1/2 and Bioavailability were calculated by non-compartmental model using software WinNonlin version 5.0.1.

[2] = molecular target: T1, recombinant human α4β2 nicotinic acetylcholine receptor (Homo sapiens, UniProt P17787+P43681); assay: Determination of IC50 and Kb values, aequorin luminescence (intracellular calcium) assay in CHO cells; type: cell-based; conditions: antagonist mode vs epibatidine
T1 construct: expressed in transfected cells
T1 sequence (P43681 29-627 limits assumed): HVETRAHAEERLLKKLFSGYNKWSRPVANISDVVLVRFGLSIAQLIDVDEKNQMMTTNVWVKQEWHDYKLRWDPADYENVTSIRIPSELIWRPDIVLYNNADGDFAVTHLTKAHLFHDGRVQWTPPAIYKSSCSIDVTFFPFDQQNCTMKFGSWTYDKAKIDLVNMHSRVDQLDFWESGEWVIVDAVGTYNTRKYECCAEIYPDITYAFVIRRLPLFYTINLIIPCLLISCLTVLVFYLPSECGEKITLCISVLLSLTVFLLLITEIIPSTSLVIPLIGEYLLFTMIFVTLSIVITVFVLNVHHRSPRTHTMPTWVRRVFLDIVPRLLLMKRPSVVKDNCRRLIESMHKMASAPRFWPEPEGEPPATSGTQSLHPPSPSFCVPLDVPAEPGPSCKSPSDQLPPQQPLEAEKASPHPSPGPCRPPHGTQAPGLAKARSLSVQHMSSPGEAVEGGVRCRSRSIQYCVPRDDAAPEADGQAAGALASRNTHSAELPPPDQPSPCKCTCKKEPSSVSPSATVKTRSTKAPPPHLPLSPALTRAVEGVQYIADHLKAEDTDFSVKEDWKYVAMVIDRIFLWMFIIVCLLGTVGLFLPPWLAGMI
T1 sequence (P17787 26-502): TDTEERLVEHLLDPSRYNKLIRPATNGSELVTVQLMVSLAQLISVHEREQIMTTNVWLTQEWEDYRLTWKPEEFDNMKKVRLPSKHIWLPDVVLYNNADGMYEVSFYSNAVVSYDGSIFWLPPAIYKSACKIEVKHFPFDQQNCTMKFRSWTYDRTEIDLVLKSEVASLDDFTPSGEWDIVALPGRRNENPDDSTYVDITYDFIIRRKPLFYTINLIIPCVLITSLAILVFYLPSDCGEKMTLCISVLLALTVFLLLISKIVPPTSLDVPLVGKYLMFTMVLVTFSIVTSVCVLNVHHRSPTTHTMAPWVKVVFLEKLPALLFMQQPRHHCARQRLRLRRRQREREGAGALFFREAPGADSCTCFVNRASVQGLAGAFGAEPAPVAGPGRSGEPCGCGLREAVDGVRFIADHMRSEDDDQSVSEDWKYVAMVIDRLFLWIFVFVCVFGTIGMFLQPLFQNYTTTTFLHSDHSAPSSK
Experimental: Determination of IC50 and Kb Values for Nicotinic Acetylcholine α4β2 Receptor Ligands
A stable CHO cell line expressing recombinant human α4β2 nicotinic acetylcholine receptor transiently expressing aequorin protein was used for cell-based assay. The assay offers a non-radioactive based approach to determine binding of a compound to ligand gated ion channels. In this specific assay, the level of intracellular calcium, which is modulated by activation or inhibition of the channel is measured. Both the channel and aequorin genes are expressed at high level under the control of powerful CMV promotor.
The above cells were grown in 96 well clear bottom white plates in Hams F12 medium containing 10% fetal bovine serum (FBS). Prior to the addition of compounds and/or agonist, cells were serum starved for six hours. Coelentarazine (a prosthetic group for aequorin protein) was added in the medium containing 0.1% dialyzed serum and incubated overnight at 27° C. Cells were washed with assay buffer and increasing concentration of the test compound or standard were added to the plate for antagonist mode. A fixed concentration of the agonist (eipbatidine) was injected into the plate and luminescence was measured for 10 seconds. For evaluation of the compound in agonist mode, increasing concentration of the standard or test compound were injected and the luminescence was measured. Luminescence units were plotted against the compound concentrations using Graphpad software. IC50 values of the compounds were defined as the concentration required in reducing the luminescent units by 50%. The Kb values were calculated by feeding the concentration of the agonist used in the assay and its EC50 value in the same software.
Literature References: Karadsheh M. S., Shah M. S., Tang X., Macdonald R. L. and Stitzel J. A. Functional characterization of mouse α4β2 nicotinic acetylcholine receptors stably expressed in HEK293T cells. J. Neurochem. 2004, 91, 1138-1150.

[3] = molecular target: Nicotinic Acetylcholine α4β2 Receptor (UniProt P09483+P12390); assay: Binding assay for human or rat nicotinic acetylcholine α4β2 receptor ([3H]Cytisine displacement); conditions: [3H]Cytisine 2.5 nM, rat brain frontal cortex or recombinant human receptor in CHO cells (not specified which)
Experimental: Binding Assay for Human or Rat Nicotinic Acetylcholine α4β2 Receptor
• Receptor source: Rat brain frontal cortex or recombinant human cDNA expressed in CHO cells • Radioligand: [^3H]Cytisine 15-40 Ci/mmole • Final ligand concentration—[2.5 nM] • Non-specific determinant: Epibatidine—[0.1 μM] • Reference compound: Epibatidine • Positive control: Epibatidine Incubation Conditions:
Increasing concentrations of test compounds or standard were incubated with membrane receptors and radioligand in 120 mM NaCl, 2.5 mM KCl, 1 mM CaCl2, 1 mM MgCl2 and 50 mM TRIS-HCl (pH 7.4) for 60 minutes at room temperature. The reaction was terminated by rapid vacuum filtration onto the glass fiber filters. Radioactivity trapped onto the filters was determined and compared to the control values in order to ascertain any interactions of the test compound(s) with either cloned human or rat receptor binding site.
Literature Reference: Bunnelle W. H., Daanen J. F., Ryther K. B., Schrimpf M. R., Dart M. J., Gelain A., Meyer M. D., Frost J. M., Anderson D. J., Buckley M., Curzon P., Cao Y-J., Puttfarcken P., Searle X., Ji J., Putman C. B., Surowy C., Toma L. and Barlocco D. Structure-Activity Studies and Analgesic Efficacy of N-(3-Pyridinyl)-Bridged Bicyclic Diamines, Exceptionally Potent Agonists at Nicotinic Acetylcholine Receptors. J. Med. Chem. 2007, 50, […].

in vivo = conditions: male, Wistar, rat, po, 15 mg/kg
Experimental: Rodent Brain Penetration Study
(§1) Three animals were housed in each cage. Animals were given water and food ad libitum throughout the experiment, and maintained on a 12 hours light/dark cycle.
(§2) NCE compound was dissolved in water and administered orally. At Tmax (0.5, 1.0 and 2.0) animals were sacrificed to collect the plasma and brain tissue and were homogenized. Plasma and Brain was stored frozen at −20° C. until analysis. The concentrations of the NCE compound in plasma and Brain were determined using LC-MS/MS method.
(§3) The NCE compounds were quantified in plasma and brain homogenate by validated LC-MS/MS method using solid phase extraction technique. NCE compounds were quantified in the calibration range of 1-500 ng/mL in plasma and brain homogenate. Study samples were analyzed using calibration samples in the batch and quality control samples spread across the batch. Extents of brain-blood ratio were calculated (Cb/Cp).

[4] = Rodent brain penetration study; conditions: male, Wistar, rat, brain homogenate and plasma, po, 5 mg/kg
Experimental: Rodent Brain Penetration Study
as §1, §2, §3

Male Wister rats = assay: Acute food intake study (animal model of hyperphagia); type: in vivo, rat; conditions: oral
Experimental: The appetite suppressing properties of compounds of this invention were studied using an animal model of hyperphagia.
Male Wister rats (200-210 grams) obtained from Raj Biotech, India were used as experimental animals. The experiment consisted of 6 days. The rats were adapted to the 18 hour fasting and 6 hour feeding pattern. The animals were housed in a group of three in the cages provided with the fasting grills and were fasted for 18 hours. After 18 hour fasting the rats were separated and placed individually in a cage. Weighed amount of feed was provided to rats for 6 hour and the feed intake at 1, 2, 4 and 6 hours was recorded. Again the rats were regrouped and fasted for 18 hour. The above procedure was followed for 5 days. The average cumulative food intake by the rats on the last 3 days was calculated. Animals were randomised on the basis of their last three days food intake.
One group of 8 rats received vehicle (2 mL/Kg) orally and another set of animals received compound of the formula (I) orally. Then the rats were given access to food and the food intake at 1, 2, 4 and 6 hours was recorded. The food intake by the rats treated with test compound was compared with the vehicle treated group by using students‘t’ test.

[5] = plasma, 5 mg/kg Per-Oral vs 5 mg/kg Intravenous

Question: With `CN(C)CC1CC2CC2N1c1cncc(Br)c1.Cl` (centres unmarked) [Example 1, N-[2-(5-Bromopyridin-3-yl)-2-azabicyclo[3.1.0]hex-3-ylmethyl]-dimethylamine hydrochloride] as the molecule, how does the AUC(0-t) ([1]; plasma, 5 mg/kg, Intravenous) read?
Answer: 901 ± 47 ng·h/mL

Question: And the Cmax ([1]; plasma, 5 mg/kg, Intravenous)?
Answer: 1940 ± 260 ng/mL

Question: And the Tmax ([1]; plasma, 5 mg/kg, Intravenous)?
Answer: 8.4 ± 6 min

Question: What about the half-life ([1]; plasma, 5 mg/kg, Intravenous) of the same molecule?
Answer: 59.4 ± 15 min

Question: And the bioavailability ([1]; plasma, 15 mg/kg Per-Oral vs 5 mg/kg Intravenous)?
Answer: 10 ± 5%

Question: And the AUC(0-t) ([1]; plasma, 15 mg/kg, Per-Oral)?
Answer: 273 ± 160 ng·h/mL

Question: What about the Cmax ([1]; plasma, 15 mg/kg, Per-Oral) of the same molecule?
Answer: 219 ± 120 ng/mL

Question: What about the Tmax ([1]; plasma, 15 mg/kg, Per-Oral) of the same molecule?
Answer: 15 min

Question: And the half-life ([1]; plasma, 15 mg/kg, Per-Oral)?
Answer: 34.8 ± 7.8 min

Question: And the Kb ([2]; read-out: Kb)?
Answer: 1.4 nM

Question: What about the Ki ([3]; read-out: Ki) of the same molecule?
Answer: 23 nM

Question: Which Kb ([2]; Kb) does the source give for `Brc1cncc(N2C(CN3CCNCC3)CC3CC32)c1` (centres unmarked) [Example 8, 2-(5-Bromopyridin-3-yl)-3-(piperazin-1-ylmethyl)-2-azabicyclo[3.1.0]hexane] here?
Answer: 4.6 nM

Question: And the Ki ([3]; read-out: Ki)?
Answer: 610 nM

Question: With `Brc1cncc(N2C(CN3CCNCC3)CC3CC32)c1` (centres unmarked) [Example 9, 2-(5-Bromopyridin-3-yl)-3-(piperazin-1-ylmethyl)-2-aza-bicyclo[3.1.0]hexane] as the molecule, how does the Kb ([2]; Kb) read?
Answer: 73.1 nM

Question: Which Kb ([2]; read-out: Kb) does the source give for `CN(C)CC1CC2CC2N1c1cccnc1` (centres unmarked) [Example 10, N-[2-(Pyridin-3-yl)-2-azabicyclo[3.1.0]hex-3-ylmethyl]dimethylamine] here?
Answer: 3.4 nM

Question: What about the Ki ([3]; read-out: Ki) of the same molecule?
Answer: 77 nM

Question: Which results are given for `CNCC1CC2CC2N1c1cncc(Br)c1` (centres unmarked) [Example 11, N-[2-(5-Bromopyridin-3-yl)-2-azabicyclo[3.1.0]hex-3-ylmethyl]methylamine]?
Answer: AUC(0-t) ([1]; in vivo, 5 mg/kg, Intravenous): 2540 ± 1300 ng·h/mL; Cmax ([1]; in vivo, 5 mg/kg, Intravenous): 1440 ± 330 ng/mL; Tmax ([1]; in vivo, 5 mg/kg, Intravenous): 4.8 min; half-life ([1]; in vivo, 5 mg/kg, Intravenous): 87 ± 31.8 min; bioavailability ([1]; in vivo, 15 mg/kg Per-Oral vs 5 mg/kg Intravenous): 59 ± 31%; AUC(0-t) ([1]; in vivo, 15 mg/kg, Per-Oral): 3880 ± 846 ng·h/mL; Cmax ([1]; in vivo, 15 mg/kg, Per-Oral): 1990 ± 435 ng/mL; Tmax ([1]; in vivo, 15 mg/kg, Per-Oral): 18.6 ± 7.8 min; half-life ([1]; in vivo, 15 mg/kg, Per-Oral): 115 ± 72 min; Kp (in vivo): 8.75 ± 1.59; Ki ([3]; read-out: Ki): 46.4 nM

Question: With `NCC1CC2CC2N1c1cccnc1` (centres unmarked) [Example 18, [2-(Pyridin-3-yl)-2-azabicyclo[3.1.0]hex-3-yl] methylamine fumarate] as the molecule, how does the Kp [4] read?
Answer: 3.52 ± 0.13

Question: And the bioavailability ([1]; in vivo, 5 mg/kg Per-Oral vs 5 mg/kg Intravenous)?
Answer: 87 ± 24%

Question: And the AUC(0-t) ([1]; in vivo, 5 mg/kg, Intravenous)?
Answer: 1760 ± 228 ng·h/mL

Question: What about the Cmax ([1]; in vivo, 5 mg/kg, Intravenous) of the same molecule?
Answer: 701 ± 213 ng/mL

Question: What about the Tmax ([1]; in vivo, 5 mg/kg, Intravenous) of the same molecule?
Answer: 22.8 ± 8.4 min

Question: And the half-life ([1]; in vivo, 5 mg/kg, Intravenous)?
Answer: 85.8 ± 6.6 min

Question: What about the AUC(0-t) ([1]; in vivo, 5 mg/kg, Per-Oral) of the same molecule?
Answer: 1540 ± 165 ng·h/mL

Question: What about the Cmax ([1]; in vivo, 5 mg/kg, Per-Oral) of the same molecule?
Answer: 355 ± 53 ng/mL

Question: What about the Tmax ([1]; in vivo, 5 mg/kg, Per-Oral) of the same molecule?
Answer: 4.8 min

Question: What about the half-life ([1]; in vivo, 5 mg/kg, Per-Oral) of the same molecule?
Answer: 105 ± 24 min

Question: What about the Ki [3] of the same molecule?
Answer: 6.4 nM

Question: What about the Inference (Male Wister rats) of the same molecule?
Answer: Active

Question: And the “% Suppression of food intake compared to vehicle, 1 Hour” value (Male Wister rats; 1 Hour, 18 hour fasted rats)?
Answer: 36.80%

Question: And the “% Suppression of food intake compared to vehicle, 2 Hour” value (Male Wister rats; 2 Hour, 18 hour fasted rats)?
Answer: 33.05%

Question: What about the “% Suppression of food intake compared to vehicle, 4 Hour” value (Male Wister rats; 4 Hour, 18 hour fasted rats) of the same molecule?
Answer: 30.02%

Question: And the “% Suppression of food intake compared to vehicle, 6 Hour” value (Male Wister rats; 6 Hour, 18 hour fasted rats)?
Answer: 25.38%

Question: For `CNCC1CC2CC2N1c1cncnc1.O=C(O)/C=C/C(=O)O` (centres unmarked) [Example 21, N-(2-(pyrimidin-5-yl)-2-azabicyclo[3.1.0]hex-3-ylmethyl)methyl amine fumarate], which Kp [4] is on record?
Answer: 1.74 ± 0.27

Question: What about the bioavailability [1, 5] of the same molecule?
Answer: 101 ± 20%

Question: What about the AUC(0-t) ([1]; plasma, 5 mg/kg, Intravenous) of the same molecule?
Answer: 2030 ± 525 ng·h/mL

Question: And the Cmax ([1]; plasma, 5 mg/kg, Intravenous)?
Answer: 1570 ± 261 ng/mL

Question: What about the Tmax ([1]; plasma, 5 mg/kg, Intravenous) of the same molecule?
Answer: 4.8 min

Question: And the half-life ([1]; plasma, 5 mg/kg, Intravenous)?
Answer: 85.8 ± 10.8 min

Question: And the AUC(0-t) ([1]; plasma, 5 mg/kg, Per-Oral)?
Answer: 1970 ± 100 ng·h/mL

Question: What about the Cmax ([1]; plasma, 5 mg/kg, Per-Oral) of the same molecule?
Answer: 685 ± 107 ng/mL

Question: What about the Tmax ([1]; plasma, 5 mg/kg, Per-Oral) of the same molecule?
Answer: 37.8 ± 15 min

Question: What about the half-life ([1]; plasma, 5 mg/kg, Per-Oral) of the same molecule?
Answer: 78 ± 22.2 min

Question: What about the Ki ([3]; read-out: Ki) of the same molecule?
Answer: 465 nM

Question: For `CNCC1CC2CC2N1c1ccc(C(F)(F)F)nc1.O=C(O)/C=C/C(=O)O` (centres unmarked) [Example 23, N-(2-(2-trifluoromethylpyridin-5-yl)-2-azabicyclo[3.1.0]hex-3-ylmethyl) methyl amine fumarate], which Kp [4] is on record?
Answer: 1.97 ± 0.08

Question: And the bioavailability [1, 5]?
Answer: 67 ± 9%

Question: What about the AUC(0-t) ([1]; plasma, 5 mg/kg, Intravenous) of the same molecule?
Answer: 18000 ± 3300 ng·h/mL

Question: And the Cmax ([1]; plasma, 5 mg/kg, Intravenous)?
Answer: 3640 ± 89 ng/mL

Question: What about the Tmax ([1]; plasma, 5 mg/kg, Intravenous) of the same molecule?
Answer: 4.8 min

Question: And the half-life ([1]; plasma, 5 mg/kg, Intravenous)?
Answer: 415 ± 145 min

Question: And the AUC(0-t) ([1]; plasma, 5 mg/kg, Per-Oral)?
Answer: 12000 ± 1740 ng·h/mL

Question: What about the Cmax ([1]; plasma, 5 mg/kg, Per-Oral) of the same molecule?
Answer: 2310 ± 163 ng/mL

Question: And the Tmax ([1]; plasma, 5 mg/kg, Per-Oral)?
Answer: 19.8 ± 8.4 min

Question: And the half-life ([1]; plasma, 5 mg/kg, Per-Oral)?
Answer: 307 ± 11.4 min

Question: And the Ki ([3]; read-out: Ki)?
Answer: 2 nM
